Measured values from US11412771B2, “Composition to improve athletic performance by supporting muscle protein synthesis and mental focus” (The Amino Company LLC, priority 2019, dated 2022).
Where two headings read alike, the source gives them in different places. Each block holds one molecule with its values, some of them ahead of it.

What was measured:
[1] = test system: nitric oxide (NO) synthesis; test: In vivo kinetics of nitric oxide (NO) metabolism after citrulline ingestion (stable isotope tracer); design: species or system human; details: 3 grams; for NO synthesis rate after citrulline ingestion: after 3 hours; for De novo arginine synthesis after citrulline ingestion: over 3 hours
Experimental: FIGS. 6A-B depicts graphs showing plasma arginine concentration (FIG. 6A) and nitric oxide (NO) synthesis (FIG. 6B) in human subjects over 3 hours following citrulline ingestion (3 grams) wherein the subjects were either elderly (n=8, 77±9 years of age, 93±4 kg) or young individuals (n=8, 27±9 years of age, 70±5 kg).
EXAMPLE 5. A kinetic study with a stable isotope tracer method was performed to determine in vivo kinetics of nitric oxide (NO) metabolism in relation to citrulline ingestion in older adult humans (n=8, 77±9 years, 93±4 kg) and in young adult humans (n=8, 27±9 years, 70±5 kg). In the fasted state, NO synthesis (expressed per kg fat free mass) was ˜50% lower in older vs. young adults and was related to a decreased rate of appearance of the NO precursor arginine. Citrulline ingestion (3 grams) stimulated de novo arginine synthesis in both older (6.88±0.83 to 35.40±4.90 μmol·kg body wt^−1·h^−1) and, to a greater extent, in young adults (12.02±1.01 to 66.26±4.79 μmol·kg body wt^−1 h^−1) over 3 hours (FIG. 6A). NO synthesis rate increased correspondingly in older (0.17±0.01 to 2.12±0.36 μmol·kg body wt^−1·h^−1) and, to a greater extent, in young adults (0.36±0.04 to 3.57±0.47 μmol·kg body wt^−1·h^−1) after 3 hours (FIG. 6B). […] Because arginine can play a role in stimulating muscle protein synthesis as well as increasing blood flow via NO synthesis, the data strongly support citrulline ingestion for acute as well as long-term promotion of muscle function.

[2] = format: in vivo, human
Experimental: FIG. 2 depicts a graph showing leucine, lysine, and phenylalanine oxidation in human subjects at rest and during prolonged aerobic exercise (approximately 30% VO2 max for 105 minutes). Error bars represent standard error of mean (SE) assessed via ANOVA.
EXAMPLE 2. […] 1982, 52(2):458-66 and Wolfe et al., J APPL PHYSIOL RESPIR ENVIRON EXERC PHYSIOL. 1984, 56(1):221-9, both the disclosures of which are herein incorporated by reference in their entirety. Total leucine oxidation increased from 0.38±0.05 to 1.41±0.14 μmol·kg^−1·min^−1 during exercise due to increases in the oxidation of plasma leucine (150%) and intracellular leucine (600%) (FIG. 2). […] These findings provided a rational for providing extra leucine, as well as other branched chain amino acids, before exercise.

SMILES: NC(=O)NCCC[C@H](N)C(=O)O [Citrulline, citrulline]
- NO synthesis rate after citrulline ingestion ([1]; older adults, basal 0.17±0.01): 2.12±0.36 μmol·kg body wt^−1·h^−1
- De novo arginine synthesis after citrulline ingestion ([1]; older adults, basal 6.88±0.83): 35.40±4.90 μmol·kg body wt^−1·h^−1
- NO synthesis rate after citrulline ingestion ([1]; young adults, basal 0.36±0.04): 3.57±0.47 μmol·kg body wt^−1·h^−1
- De novo arginine synthesis after citrulline ingestion ([1]; young adults, basal 12.02±1.01): 66.26±4.79 μmol·kg body wt^−1 h^−1

- Total leucine oxidation ([2]; human, in vivo): 0.38 ± 0.05 µmol/kg/min
- Increase in the oxidation of intracellular leucine ([2]; human, in vivo, 105 min): 600%
- Increase in the oxidation of plasma leucine ([2]; human, in vivo, 105 min): 150%
- Total leucine oxidation ([2]; human, in vivo, 105 min): 1.41 ± 0.14 µmol/kg/min
SMILES: CC(C)C[C@H](N)C(=O)O [leucine]
- Plasma leucine flux ([2]; not told): decreased slightly, but not significantly

- Oxidation, change from rest to exercise ([2]; in vivo): did not change significantly
SMILES: N[C@@H](Cc1ccccc1)C(=O)O [phenylalanine]

SMILES: NCCCC[C@H](N)C(=O)O [lysine]
- Oxidation, change from rest to exercise ([2]; in vivo): did not change significantly
